These results are taken from ChEMBL document CHEMBL1201862, “PubChem BioAssay data set” (2004).

The structures appear in SMILES notation.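 Results reflect a 48-hour exposure of cells in 96-well plates to compound at five concentrations. GI50 is the concentration that inhibits growth by half.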 Active and inactive are the calls of the source. No stated cut-off is given here; in the data, active = GI50 up to about 1.1 µM and inactive = higher. Bounds are passed on as bounds.

What all share (assay): inhibition of tumour cell growth, NCI panel, 48 h
Assay [1] relates to EKVX.
For assay [2], the system named is SF-268.
Assay [3] deals with UO-31.
The test system of assay [4] is K562.
The subject of assay [5] is A549.
The subject of assay [6] is XF498.
For assay [7], the system named is SK-MEL-28.
In assay [8] the test system is HOP-62.
Assay [9] has as its system SN12C.
Assay [10] deals with HCT-15.
In assay [11] the test system is HOP-92.
Assay [12] concerns MOLT-4.
The test system of assay [13] is NCI-H226.
The test system of assay [14] is RXF 393.
In assay [15] the test system is CAKI-1.
Assay [16] concerns UACC-62.
The test system of assay [17] is SK-MEL-5.
Assay [18] deals with MDA-MB-435.
Assay [19] has as its system MCF7.
Assay [20] concerns MDA-N.

For the compound `CCCCN(CCCC)CCCCNc1c(C)cnc2cc(Cl)ccc12`, the GI50 in assay [1] was 20 µM (inactive); in assay [2] it was 21.6 µM (inactive); in assay [3], 9.35 µM (inactive); in assay [4], 10.3 µM (inactive); in assay [5] it was 30.9 µM (inactive); in assay [6], 14.4 µM (inactive). For the same compound, the GI50 in assay [7] was 17.2 µM (inactive); in assay [8] it was 21.3 µM (inactive); in assay [9], 30.6 µM (inactive); in assay [10], 29.9 µM; in assay [11], 13.5 µM (inactive); in assay [12], 25.9 µM (inactive). Further, the GI50 is 16.4 µM (inactive) in assay [13] and 13.3 µM (inactive) in assay [14].
In the case of `COc1ccc(/C=C/c2onc3c(=O)n(C)nc(-c4ccccc4)c23)cc1`, the GI50 was 35.9 µM (inactive) in assay [15]; > 100 µM (inactive) in assay [16]; > 100 µM (inactive) in [1]; > 100 µM (inactive) in assay [2]; > 100 µM (inactive) in assay [3]; > 100 µM (inactive) in assay [4]. For the same compound, the GI50 in [5] was > 100 µM (inactive); in assay [6], 37 µM (inactive); in [7], > 100 µM (inactive); in [8], 89.3 µM (inactive); in [9] it was > 100 µM (inactive); in assay [10], more than 100 µM. Further, the GI50 in assay [11] was 7.26 µM (inactive); in assay [12], > 100 µM (inactive); in assay [14] it was > 100 µM (inactive); in assay [17] it was > 100 µM (inactive).
Consider `COC(=O)c1cc(O)ccc1O` [METHYL 2,5-DIHYDROXYBENZOATE], for which the GI50 in [15], in [16], in [1], in assay [2], in assay [3] and in assay [4] was > 100 µM (inactive) in each case. In addition, the GI50 was > 100 µM (inactive) in assay [5]; > 100 µM (inactive) in [6]; > 100 µM (inactive) in assay [7]; > 100 µM (inactive) in [8]; > 100 µM (inactive) in assay [9]; more than 100 µM in assay [10]. Besides, the GI50 in assay [11], in assay [12], in assay [13], in assay [14] and in assay [17] was > 100 µM (inactive) throughout.
In the case of `N#CCCN(CCC#N)c1ccc(/C=C2\N=C(CN3C(=O)c4ccccc4C3=O)OC2=O)cc1`, the GI50 in assay [15], in [16], in assay [1], in assay [2], in assay [3] and in assay [4] was > 100 µM (inactive) each time. For the same compound, the GI50 is > 100 µM (inactive) in [5]; > 100 µM (inactive) in [6]; > 100 µM (inactive) in [7]; > 100 µM (inactive) in [8]; > 100 µM (inactive) in [9]; more than 100 µM in [10]. Besides, the GI50 in [12], in assay [13] and in assay [17] was > 100 µM (inactive) each time.
As to `O=C1/C(=C/c2ccc(C(=O)O)cc2)CNC/C1=C\c1ccc(C(=O)O)cc1`, the GI50 in [16], in assay [2], in assay [3], in [4], in assay [5] and in assay [6] was > 100 µM (inactive) each time. In addition, the GI50 was > 100 µM (inactive) in assay [7]; > 100 µM (inactive) in assay [8]; > 100 µM (inactive) in assay [9]; more than 100 µM in assay [10]; > 100 µM (inactive) in [11]; > 100 µM (inactive) in assay [12]. Besides, the GI50 in [13], in assay [14] and in assay [17] was > 100 µM (inactive) throughout.
For the compound `O=C(OCCCl)C1OC(n2cc(F)c(=O)[nH]c2=O)CC1O` (configuration not stated), the GI50 in assay [16], in assay [1], in assay [2], in [3], in assay [4] and in assay [5] was > 100 µM (inactive) in each case. The GI50 in assay [6] was > 100 µM (inactive); in assay [7], > 100 µM (inactive); in [8] it was > 100 µM (inactive); in assay [9] it was > 100 µM (inactive); in assay [10], more than 100 µM; in assay [11] it was 57.8 µM (inactive). Also, the GI50 in [12], in assay [13], in [14] and in assay [17] was > 100 µM (inactive) in each case.
As for `CCCNCC(=O)O[C@]1(CC)C(=O)OCc2c1cc1n(c2=O)Cc2cc3ccccc3nc2-1`, the GI50 is < 0.01 µM (active) in [16]; 25.1 µM (inactive) in assay [1]; < 0.01 µM (active) in assay [2]; 0.0637 µM (active) in assay [3]; 0.181 µM (active) in assay [4]; 0.0322 µM (active) in assay [5]. The GI50 in [6] is < 0.01 µM (active); in [7] it was 2.31 µM (inactive); in assay [8] it was < 0.01 µM (active); in assay [9] it was < 0.01 µM (active); in [11], 0.325 µM (active); in [12], < 0.01 µM (active). For the same compound, the GI50 in [13] was 0.0121 µM (active); in assay [14], 0.0397 µM (active); in assay [17], 0.119 µM (active).
Turning to `CCCCCCCCCCCC[N+]12CC[N+](CCN)(CC1)CC2`, the GI50 in assay [15] is 19.2 µM (inactive); in assay [16], 56.9 µM (inactive); in [1], > 100 µM (inactive); in assay [2], 37.2 µM (inactive); in assay [3], > 100 µM (inactive); in [4], 32.1 µM (inactive). In addition, the GI50 is > 100 µM (inactive) in [5]; > 100 µM (inactive) in assay [6]; > 100 µM (inactive) in [7]; 68.5 µM (inactive) in assay [8]; 76.7 µM (inactive) in [9]; 29.4 µM (inactive) in assay [11]. Also, the GI50 in assay [12] was > 100 µM (inactive); in assay [13], 63.7 µM (inactive); in assay [14] it was 5.62 µM (inactive); in [17], > 100 µM (inactive).
Regarding `Cc1ccc(C2CC(c3ccco3)=NN2c2ccccc2)o1` (configuration not stated), the GI50 in assay [16], in [1], in [2], in assay [3], in assay [4] and in assay [5] was > 100 µM (inactive) in each case. Also, the GI50 was > 100 µM (inactive) in [6]; > 100 µM (inactive) in assay [7]; > 100 µM (inactive) in assay [8]; > 100 µM (inactive) in [9]; more than 100 µM in [10]; > 100 µM (inactive) in assay [12]. The GI50 in assay [13], in assay [14] and in assay [17] was > 100 µM (inactive) throughout.
Regarding `COC1=CC(=O)C2C(C1=O)C(c1ccc(OC)c(OC)c1)[C@H]2C` (some centres not stated), the GI50 is 11.5 µM (inactive) in [15]; > 100 µM (inactive) in assay [16]; > 100 µM (inactive) in assay [1]; > 100 µM (inactive) in assay [2]; > 100 µM (inactive) in assay [3]; 23.4 µM (inactive) in [4]. In addition, the GI50 was > 100 µM (inactive) in assay [5]; 16.2 µM (inactive) in assay [6]; 20.3 µM (inactive) in [7]; > 100 µM (inactive) in [8]; 18.2 µM in assay [10]; 20 µM (inactive) in assay [11]. In addition, the GI50 in assay [12] is 7.71 µM (inactive); in assay [13] it was > 100 µM (inactive); in assay [14], 19.7 µM (inactive); in [17], 22.4 µM (inactive).
With `CC1(C)C(=O)/C=C\C(=O)C(C)(C)C2=CC=C(O2)C(C)(C)C(=O)/C=C\C(=O)C(C)(C)C2=CC=C1O2`, the GI50 in [15], in [1], in assay [2], in assay [4], in [5] and in [6] was > 100 µM (inactive) throughout. In addition, the GI50 in [7] is > 100 µM (inactive); in assay [8] it was > 100 µM (inactive); in assay [9] it was > 100 µM (inactive); in [10], more than 100 µM; in [11], > 100 µM (inactive); in assay [12], > 100 µM (inactive). In addition, the GI50 in [13] and in [14] was > 100 µM (inactive) throughout.
In the case of `O=S(=O)(CCCCl)SCCCCl`, the GI50 was > 57.1 µM (inactive) in [15]; 36.1 µM (inactive) in [16]; 25.8 µM (inactive) in assay [18]; > 100 µM (inactive) in [1]; 26.7 µM (inactive) in [2]; 65.5 µM (inactive) in assay [3]. Also, the GI50 in assay [4] is 7.5 µM (inactive); in assay [5], 68.4 µM (inactive); in [7], 39.3 µM (inactive); in [8] it was > 87.5 µM (inactive); in assay [9], 25.1 µM (inactive); in [10], 23.3 µM. In addition, the GI50 in assay [11] was 25 µM (inactive); in assay [12] it was 3.17 µM (inactive); in assay [19], 19.6 µM (inactive); in assay [13] it was > 65.5 µM (inactive); in [14] it was 30.3 µM (inactive); in assay [17] it was 30.7 µM (inactive). Further, the GI50 in assay [20] was 27 µM (inactive).
For the compound `COc1ccc(/C=C/C(=O)/C=C/c2ccc(OC)cc2)cc1`, the GI50 is > 100 µM (inactive) in assay [15]; > 100 µM (inactive) in [16]; 14.6 µM (inactive) in [18]; 41.7 µM (inactive) in assay [1]; 54.6 µM (inactive) in assay [2]; > 100 µM (inactive) in assay [3]. For the same compound, the GI50 in [4] was 31.6 µM (inactive); in assay [5], 46 µM (inactive); in assay [7], > 100 µM (inactive); in assay [8], > 100 µM (inactive); in [9] it was > 100 µM (inactive); in assay [10] it was 47.8 µM. The GI50 in assay [11] is 32.5 µM (inactive); in assay [12] it was 51.1 µM (inactive); in assay [19] it was 47.8 µM (inactive); in assay [13] it was 22.4 µM (inactive); in assay [14], 18.3 µM (inactive); in assay [17], 31.3 µM (inactive). Moreover, the GI50 in [20] was 19 µM (inactive).
